Values joined by “and” are separate entries in the source; they are usually repeats but may differ in a detail not shown here. Equal entries are not always repeated. Toxic doses and inconclusive results are not listed. The calls were made as follows: active = survival T/C of 150% or more; inactive = T/C below 125% in these data.
Test system: P388 leukemia ip, CD2F1 mice, survival T/C
Assay: NCI In Vivo Anticancer Drug Screen. Data for tumor model P388 Leukemia (intraperitoneal) in CD2F1 (CDF1) mice
Details: endpoint: median survival time, higher = longer survival
Outline: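 Mice carrying the transplanted tumor received test compound or vehicle. Survival was recorded in each group, and the value is the treated-group measurement divided by that of the vehicle-treated control group.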

[1] = dose: 60.0 mg/kg/injection, schedule: Q01DX005 (ip), vehicle: Klucel (hydroxypropylcellulose) (HPC)
[2] = dose: 120.0 mg/kg/injection, schedule: Q01DX005 (ip), vehicle: Klucel (hydroxypropylcellulose) (HPC)
[3] = dose: 60.0 mg/kg/injection, schedule: Q01DX005 (ip), vehicle: saline with Tween-80
[4] = dose: 120.0 mg/kg/injection, schedule: Q01DX005 (ip), vehicle: saline with Tween-80
[5] = dose: 240.0 mg/kg/injection, schedule: Q01DX005 (ip), vehicle: saline with Tween-80
[6] = dose: 50.0 mg/kg/injection, schedule: Q01DX009 (ip), vehicle: Klucel (hydroxypropylcellulose) (HPC)
[7] = dose: 100.0 mg/kg/injection, schedule: Q01DX009 (ip), vehicle: Klucel (hydroxypropylcellulose) (HPC)
[8] = dose: 200.0 mg/kg/injection, schedule: Q01DX009 (ip), vehicle: Klucel (hydroxypropylcellulose) (HPC)

Measured: T/C

CC(C)CC1N=C(NN=C2CCCCC2)SP1(=O)NNc1ncccn1 (centres undefined)
inactive: [1] 94 % of control | [2] 97 % of control

Oc1ccc(Br)cc1C(c1ccc2c(c1)OCO2)N1CCOCC1 (centres undefined)
inactive: [3] 100 % of control | [4] 101 % of control | [5] 102 % of control

COc1cccc2c1C(=O)c1c(O)c3c(c(O)c1C2=O)C[C@@](O)(C(=O)CN1CCN(C)CC1)C[C@@H]3OC1CC(N)C(O)C(C)O1 (some centres undefined)
active: dose: 18.8 mg/kg/injection, schedule: Q01DX009 (ip), vehicle: water 161 % of control
inactive: dose: 1.3 mg/kg/injection, schedule: Q01DX001 (ip), vehicle: water 108 % of control | dose: 1.56 mg/kg/injection, schedule: Q01DX009 (ip), vehicle: water 115 % of control | dose: 1.8 mg/kg/injection, schedule: Q01DX001 (ip), vehicle: water 116 % of control | dose: 2.4 mg/kg/injection, schedule: Q01DX001 (ip), vehicle: water 106 % of control | dose: 3.12 mg/kg/injection, schedule: Q01DX009 (ip), vehicle: water 123 % of control | dose: 3.13 mg/kg/injection, schedule: Q01DX009 (ip), vehicle: water 115 % of control | dose: 3.2 mg/kg/injection, schedule: Q01DX001 (ip), vehicle: water 109 % of control | dose: 4.2 mg/kg/injection, schedule: Q01DX001 (ip), vehicle: water 113 % of control | dose: 5.6 mg/kg/injection, schedule: Q01DX001 (ip), vehicle: water 115 % of control | dose: 6.25 mg/kg/injection, schedule: Q01DX009 (ip), vehicle: water 115 % of control | dose: 7.5 mg/kg/injection, schedule: Q01DX001 (ip), vehicle: water 117 % of control | dose: 10.0 mg/kg/injection, schedule: Q01DX001 (ip), vehicle: water 115 % of control | dose: 12.5 mg/kg/injection, schedule: Q01DX001 (ip), vehicle: water 117 % of control | dose: 25.0 mg/kg/injection, schedule: Q01DX001 (ip), vehicle: water 119 % of control | dose: 25.0 mg/kg/injection, schedule: Q01DX009 (ip), vehicle: water 115 % of control and 117 % of control

C=C1CC2C(C1=O)C(c1ccc(OC)cc1)C13OC1CCC23 (centres undefined)
inactive: dose: 100.0 mg/kg/injection, schedule: Q04DX003 (ip), vehicle: Klucel (hydroxypropylcellulose) (HPC) 105 % of control | dose: 200.0 mg/kg/injection, schedule: Q04DX003 (ip), vehicle: Klucel (hydroxypropylcellulose) (HPC) 96 % of control | dose: 400.0 mg/kg/injection, schedule: Q04DX003 (ip), vehicle: Klucel (hydroxypropylcellulose) (HPC) 86 % of control

Clc1ccccc1C=NCC1CCC(CN=Cc2ccccc2Cl)CC1 (centres undefined)
inactive: dose: 6.25 mg/kg/injection, schedule: Q01DX009 (ip), vehicle: saline with Tween-80 99 % of control | dose: 12.5 mg/kg/injection, schedule: Q01DX009 (ip), vehicle: saline with Tween-80 101 % of control | dose: 25.0 mg/kg/injection, schedule: Q01DX009 (ip), vehicle: saline with Tween-80 100 % of control | dose: 50.0 mg/kg/injection, schedule: Q01DX009 (ip), vehicle: saline with Tween-80 116 % of control

Cc1ccc(-n2c3nc(=O)n(C)c(=O)c-3nc3ccccc32)cc1C
inactive: dose: 100.0 mg/kg/injection, schedule: Q01DX001 (ip), vehicle: Klucel (hydroxypropylcellulose) (HPC) 95 % of control | dose: 200.0 mg/kg/injection, schedule: Q01DX001 (ip), vehicle: Klucel (hydroxypropylcellulose) (HPC) 92 % of control

CC(C)c1ncc(CO)n1Cc1c(Cl)cccc1Cl
inactive: [6] 100 % of control | [7] 102 % of control | [8] 100 % of control

CC(/C=N/N=C1\C(=O)Nc2ccccc21)=C\c1ccccc1
inactive: [6] 95 % of control | [7] 94 % of control | [8] 100 % of control

COc1cc2c(cc1OC)C1CC(CC3CCCCN31)OC(=O)/C=C\c1ccc(O)c-2c1 (centres undefined)
inactive: dose: 25.0 mg/kg/injection, schedule: Q04DX003 (ip), vehicle: saline 105 % of control | dose: 50.0 mg/kg/injection, schedule: Q04DX003 (ip), vehicle: saline 111 % of control | dose: 100.0 mg/kg/injection, schedule: Q04DX003 (ip), vehicle: saline 102 % of control and 86 % of control

CCCCC/C([O-])=C1/C(=O)N(c2ccccc2)N=C1C.CCCCC/C([O-])=C1/C(=O)N(c2ccccc2)N=C1C.[Cu+2]
inactive: [3] 96 % of control | [4] 101 % of control

Cc1nnc(N/N=C/c2ccc([N+](=O)[O-])o2)[nH]c1=O
inactive: dose: 6.25 mg/kg/injection, schedule: Q01DX005 (ip), vehicle: saline with Tween-80 101 % of control and 114 % of control | dose: 12.5 mg/kg/injection, schedule: Q01DX005 (ip), vehicle: saline with Tween-80 115 % of control and 118 % of control (2×)

O=C(NCCCl)N1CCC(CN=c2cc3n(-c4ccc(Cl)cc4)c4ccccc4nc-3cc2Nc2ccc(Cl)cc2)CC1
inactive: dose: 7.5 mg/kg/injection, schedule: Q01DX005 (ip), vehicle: saline with Tween-80 88 % of control | dose: 15.0 mg/kg/injection, schedule: Q01DX005 (ip), vehicle: saline with Tween-80 88 % of control | [4] 94 % of control | [5] 97 % of control

Cc1ccccc1C(C)(O)c1cnc(C)n1Cc1ccccc1 (centres undefined)
inactive: [1] 111 % of control | [2] 96 % of control | dose: 240.0 mg/kg/injection, schedule: Q01DX005 (ip), vehicle: Klucel (hydroxypropylcellulose) (HPC) 91 % of control

COc1ccc(C[Se][Se]Cc2ccc(OC)cc2)cc1
inactive: dose: 6.25 mg/kg/injection, schedule: Q01DX009 (ip), vehicle: Klucel (hydroxypropylcellulose) (HPC) 99 % of control | dose: 12.5 mg/kg/injection, schedule: Q01DX009 (ip), vehicle: Klucel (hydroxypropylcellulose) (HPC) 108 % of control | dose: 25.0 mg/kg/injection, schedule: Q01DX009 (ip), vehicle: Klucel (hydroxypropylcellulose) (HPC) 106 % of control

CCN(CC)CCNc1ncnc2[nH]ncc12
inactive: dose: 50.0 mg/kg/injection, schedule: Q01DX005 (ip), vehicle: saline 106 % of control | dose: 100.0 mg/kg/injection, schedule: Q01DX005 (ip), vehicle: saline 101 % of control

CN1CCC2(C)CC1Cc1ccc(O)cc12 (centres undefined)
inactive: dose: 3.12 mg/kg/injection, schedule: Q01DX005 (ip), vehicle: saline 96 % of control | dose: 6.25 mg/kg/injection, schedule: Q01DX005 (ip), vehicle: saline 104 % of control | dose: 12.5 mg/kg/injection, schedule: Q01DX005 (ip), vehicle: saline 105 % of control | dose: 25.0 mg/kg/injection, schedule: Q01DX005 (ip), vehicle: saline 96 % of control

CCCC(=O)Nc1ncnc2c1ncn2C1OC2COP(=O)(O)OC2C1OC(=O)CCC (centres undefined)
inactive: dose: 3.13 mg/kg/injection, schedule: Q03HX012 (ip), vehicle: saline 114 % of control | dose: 6.25 mg/kg/injection, schedule: Q03HX012 (ip), vehicle: saline 112 % of control | dose: 12.5 mg/kg/injection, schedule: Q03HX012 (ip), vehicle: saline 112 % of control | dose: 25.0 mg/kg/injection, schedule: Q01DX009 (ip), vehicle: saline 96 % of control | dose: 25.0 mg/kg/injection, schedule: Q03HX012 (ip), vehicle: saline 112 % of control | dose: 50.0 mg/kg/injection, schedule: Q01DX009 (ip), vehicle: saline 96 % of control | dose: 50.0 mg/kg/injection, schedule: Q03HX012 (ip), vehicle: saline 116 % of control | dose: 100.0 mg/kg/injection, schedule: Q01DX009 (ip), vehicle: saline 96 % of control | dose: 100.0 mg/kg/injection, schedule: Q03HX012 (ip), vehicle: saline 108 % of control | dose: 200.0 mg/kg/injection, schedule: Q01DX009 (ip), vehicle: saline 104 % of control | dose: 400.0 mg/kg/injection, schedule: Q01DX009 (ip), vehicle: saline 109 % of control

CC1=C(C2CO2)C(=O)C(C)=C(C2CO2)C1=O (centres undefined)
inactive: dose: 1.56 mg/kg/injection, schedule: Q04DX002 (ip), vehicle: Klucel (hydroxypropylcellulose) (HPC) 95 % of control | dose: 3.12 mg/kg/injection, schedule: Q04DX002 (ip), vehicle: Klucel (hydroxypropylcellulose) (HPC) 93 % of control | dose: 6.25 mg/kg/injection, schedule: Q04DX002 (ip), vehicle: Klucel (hydroxypropylcellulose) (HPC) 88 % of control | dose: 12.5 mg/kg/injection, schedule: Q04DX002 (ip), vehicle: Klucel (hydroxypropylcellulose) (HPC) 89 % of control

Source: PubChem BioAssay AID330 (DTP/NCI, 2004)
